Measurements taken from the supplement of paper PMC8612539.

Key:
Enterococcus spp. = assay: minimum inhibitory concentration (MIC)
Method: (§1)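 Broth microdilution MIC (Sensititre BOPO7F bovine plate, CLSI methods) of 19 antimicrobials against field isolates of P. multocida, M. haemolytica, H. somni (deep nasopharyngeal swabs) and E. coli, Enterococcus spp. (rectal swabs) from weaned dairy heifers. Incubation 16-24 h at 35 C. MIC is the lowest concentration preventing visible growth. Values with <= or > lie at the tested range limits. Trimethoprim-sulfamethoxazole is given as the trimethoprim component of a 1:19 mixture.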

Mannheimia haemolytica = assay: minimum inhibitory concentration (MIC)
Method: as §1

COc1cc(Cc2cnc(N)nc2N)cc(OC)c1OC.Cc1cc(NS(=O)(=O)c2ccc(N)cc2)no1 [trimethoprim-sulfamethoxazole]
minimum inhibitory concentration [µg/mL]
Conditions | Enterococcus spp. | Mannheimia haemolytica
isolate (source animal id): 2 | ≤ 2 | –
isolate (source animal id): 3 | – | ≤ 2
isolate (source animal id): 8 | – | ≤ 2
isolate (source animal id): 13 | – | ≤ 2
isolate (source animal id): 18 | – | ≤ 2
isolate (source animal id): 21 | – | ≤ 2
isolate (source animal id): 25 | – | ≤ 2
isolate (source animal id): 27 | – | ≤ 2
isolate (source animal id): 28 | – | ≤ 2
isolate (source animal id): 30 | – | ≤ 2
isolate (source animal id): 31 | – | ≤ 2
isolate (source animal id): 32 | – | ≤ 2
isolate (source animal id): 34 | – | ≤ 2
isolate (source animal id): 35 | > 2 | –
isolate (source animal id): 36 | – | ≤ 2
isolate (source animal id): 37 | – | ≤ 2
isolate (source animal id): 40 | – | ≤ 2
isolate (source animal id): 41 | – | ≤ 2
isolate (source animal id): 42 | ≤ 2 | –
isolate (source animal id): 43 | – | ≤ 2
isolate (source animal id): 44 | > 2 | –
isolate (source animal id): 46 | – | ≤ 2
isolate (source animal id): 49 | – | ≤ 2
isolate (source animal id): 50 | – | ≤ 2
isolate (source animal id): 51 | – | ≤ 2
isolate (source animal id): 52 | – | ≤ 2
isolate (source animal id): 53 | – | ≤ 2
isolate (source animal id): 55 | – | ≤ 2
isolate (source animal id): 56 | – | ≤ 2
isolate (source animal id): 57 | – | ≤ 2
isolate (source animal id): 60 | – | > 2
isolate (source animal id): 61 | – | ≤ 2
isolate (source animal id): 64 | – | ≤ 2
isolate (source animal id): 65 | – | ≤ 2
isolate (source animal id): 66 | – | > 2
isolate (source animal id): 67 | – | ≤ 2
isolate (source animal id): 68 | – | ≤ 2
isolate (source animal id): 70 | – | ≤ 2
isolate (source animal id): 72 | – | ≤ 2
isolate (source animal id): 74 | – | ≤ 2
isolate (source animal id): 76 | – | ≤ 2
isolate (source animal id): 79 | ≤ 2 | –
isolate (source animal id): 80 | – | ≤ 2
isolate (source animal id): 82 | – | ≤ 2
isolate (source animal id): 83 | – | ≤ 2
isolate (source animal id): 84 | – | ≤ 2
isolate (source animal id): 85 | – | ≤ 2
isolate (source animal id): 86 | – | ≤ 2
isolate (source animal id): 87 | – | > 2
isolate (source animal id): 88 | ≤ 2 | –
isolate (source animal id): 91 | ≤ 2 | –
isolate (source animal id): 92 | ≤ 2 | –
isolate (source animal id): 100 | – | > 2
isolate (source animal id): 103 | – | ≤ 2
isolate (source animal id): 107 | – | ≤ 2
isolate (source animal id): 108 | – | ≤ 2
isolate (source animal id): 111 | ≤ 2 | –
isolate (source animal id): 112 | – | ≤ 2
isolate (source animal id): 113 | – | ≤ 2
isolate (source animal id): 121 | – | ≤ 2
isolate (source animal id): 122 | > 2 | ≤ 2
isolate (source animal id): 123 | ≤ 2 | ≤ 2
isolate (source animal id): 126 | – | ≤ 2
isolate (source animal id): 133 | ≤ 2 | ≤ 2
isolate (source animal id): 135 | – | ≤ 2
isolate (source animal id): 138 | – | ≤ 2
isolate (source animal id): 141 | – | ≤ 2
isolate (source animal id): 142 | – | ≤ 2
isolate (source animal id): 145 | – | ≤ 2
isolate (source animal id): 149 | – | ≤ 2
isolate (source animal id): 151 | – | ≤ 2
isolate (source animal id): 152 | – | ≤ 2
isolate (source animal id): 154 | – | ≤ 2
isolate (source animal id): 158 | > 2 | –
isolate (source animal id): 159 | – | ≤ 2
isolate (source animal id): 162 | – | ≤ 2
isolate (source animal id): 168 | ≤ 2 | –
isolate (source animal id): 169 | ≤ 2 | –
isolate (source animal id): 170 | – | ≤ 2
isolate (source animal id): 171 | ≤ 2 | ≤ 2
isolate (source animal id): 172 | – | ≤ 2
isolate (source animal id): 173 | – | ≤ 2
isolate (source animal id): 175 | ≤ 2 | –
isolate (source animal id): 177 | ≤ 2 | –
isolate (source animal id): 179 | – | ≤ 2
isolate (source animal id): 180 | – | ≤ 2
isolate (source animal id): 181 | ≤ 2 | –
isolate (source animal id): 182 | ≤ 2 | –
isolate (source animal id): 183 | ≤ 2 | ≤ 2
isolate (source animal id): 186 | – | ≤ 2
isolate (source animal id): 187 | ≤ 2 | ≤ 2
isolate (source animal id): 188 | – | ≤ 2
isolate (source animal id): 190 | ≤ 2 | ≤ 2
isolate (source animal id): 191 | – | ≤ 2
isolate (source animal id): 192 | – | ≤ 2
isolate (source animal id): 194 | ≤ 2 | –
isolate (source animal id): 195 | ≤ 2 | –
isolate (source animal id): 197 | ≤ 2 | –
isolate (source animal id): 201 | – | ≤ 2
isolate (source animal id): 202 | – | ≤ 2
isolate (source animal id): 209 | – | ≤ 2
isolate (source animal id): 211 | ≤ 2 | ≤ 2
isolate (source animal id): 214 | > 2 | –
isolate (source animal id): 220 | – | ≤ 2
isolate (source animal id): 221 | – | ≤ 2
isolate (source animal id): 222 | ≤ 2 | –
isolate (source animal id): 223 | ≤ 2 | ≤ 2
isolate (source animal id): 228 | ≤ 2 | –
isolate (source animal id): 230 | ≤ 2 | –
isolate (source animal id): 233 | – | ≤ 2
isolate (source animal id): 235 | ≤ 2 | –
isolate (source animal id): 236 | ≤ 2 | –
isolate (source animal id): 237 | – | ≤ 2
isolate (source animal id): 239 | ≤ 2 | –
isolate (source animal id): 241 | ≤ 2 | ≤ 2
isolate (source animal id): 244 | ≤ 2 | –
isolate (source animal id): 246 | ≤ 2 | –
isolate (source animal id): 247 | ≤ 2 | –
isolate (source animal id): 250 | ≤ 2 | –
isolate (source animal id): 252 | > 2 | ≤ 2
isolate (source animal id): 253 | – | ≤ 2
isolate (source animal id): 259 | – | ≤ 2
isolate (source animal id): 260 | – | ≤ 2
isolate (source animal id): 262 | – | ≤ 2
isolate (source animal id): 268 | ≤ 2 | –
isolate (source animal id): 282 | ≤ 2 | ≤ 2
isolate (source animal id): 285 | > 2 | –
isolate (source animal id): 287 | – | ≤ 2
isolate (source animal id): 288 | – | ≤ 2
isolate (source animal id): 289 | ≤ 2 | –
isolate (source animal id): 290 | ≤ 2 | –
isolate (source animal id): 291 | – | ≤ 2
isolate (source animal id): 293 | – | ≤ 2
isolate (source animal id): 296 | ≤ 2 | –
isolate (source animal id): 298 | ≤ 2 | ≤ 2
isolate (source animal id): 299 | – | ≤ 2
isolate (source animal id): 300 | – | ≤ 2
isolate (source animal id): 301 | ≤ 2 | –
isolate (source animal id): 302 | – | ≤ 2
isolate (source animal id): 304 | – | ≤ 2
isolate (source animal id): 306 | – | ≤ 2
isolate (source animal id): 308 | – | ≤ 2
isolate (source animal id): 309 | – | ≤ 2
isolate (source animal id): 310 | > 2 | –
isolate (source animal id): 313 | – | ≤ 2
isolate (source animal id): 318 | – | ≤ 2
isolate (source animal id): 320 | ≤ 2 | ≤ 2
isolate (source animal id): 321 | – | ≤ 2
isolate (source animal id): 323 | – | ≤ 2
isolate (source animal id): 324 | – | ≤ 2
isolate (source animal id): 326 | – | ≤ 2
isolate (source animal id): 328 | – | ≤ 2
isolate (source animal id): 329 | – | ≤ 2
isolate (source animal id): 331 | ≤ 2 | –
isolate (source animal id): 333 | ≤ 2 | ≤ 2
isolate (source animal id): 335 | – | ≤ 2
isolate (source animal id): 338 | – | ≤ 2
isolate (source animal id): 341 | > 2 | –
